Assay results as given in patent publication US8247002B2, “Antioxidant material, anti-deterioration agent and food or beverage” (Pokka Corporation, priority 2004, dated 2012).
Blank lines part the entries; values can stand above or below the compound they belong to.

Columns and labels:
Type in all cases: biochemical
[1] = Inhibitory effect on oxidation of biomembrane using liposome (SUV, AAPH, TBA); details: 500 ppm sample in phosphate buffer pH 7.4, AAPH, 535 nm
Description: A single compartment liposome (SUV: Small Unilamellar Vesicle) was used as a biomembrane model to evaluate antioxidative power. For preparing SUV, at first, 100 mg of yolk lecithin was supplemented with 1 ml of chloroform and completely dissolved, followed by the complete removal of the chloroform in a short-neck flask. The obtained lipid film was swollen by the addition of 10 ml of 10 mM phosphate buffer (pH 7.4) containing 500 ppm of the lemon glycoside of Comparative Example 1, the eriocitrin of Comparative Example 2, the enzyme-treated aglycon of Test Example 1, or eriodictyol (manufactured by Funakoshi). The resulting mixture was well shaken and completely dispersed with an ultrasonic washing machine. The lipid film swollen by the addition of 10 ml of only the phosphate buffer was tested as a control in the same way. Next, the obtained multilayer liposome solution was bubbled with nitrogen gas for 5 minutes and then sonicated at 180 W for 20 minutes in a strong ultrasonic generator to prepare a small unilamellar vesicle (SUV).
The peroxidation of the SUV thus prepared was forcedly promoted by the addition of AAPH ([…]), a radical initiator, to the SUV. As a result, a peroxide as a primary product is generated in the liposome. Subsequently, as a secondary product such as malondialdehyde is generated during the course of autoxidation. A thiobarbituric acid (TBA) reagent is added thereto to generate a red substance (TBA-positive substance), a reaction product of aldehydes. The degree of coloration thereof was measured with a spectrophotometer at λ=535 nm and used to determine the rate of oxidation of the liposome membrane (%).

[2] = Measurement of DPPH radical-scavenging activity; details: 500 ppm solution (with vitamin C: each 500 ppm), 100 μl aliquot, 20 minutes room temperature in the dark
Description: Each sample shown in Table 1 described below was examined for DPPH (1,1-diphenyl-2-picrylhydrazyl) radical-scavenging activity. Namely, the lemon glycoside of Comparative Example 1, the eriocitrin of Comparative Example 2, the enzyme-treated aglycon of Test Example 1, or eriodictyol, neoeriocitrin, vitamin C, or α-tocopherol purchased from Funakoshi was dissolved at its concentration of 500 ppm in a solvent to produce an aqueous solution. Then, 100 μl aliquot of the aqueous solution was supplemented with 1 ml of 0.1 M Tris buffer (pH 7.4). The solvent used for α-tocopherol was methanol. Alternatively, each sample described above and vitamin C were dissolved at each concentration of 500 ppm in a solvent to produce an aqueous solution whose 100 μl aliquot was then supplemented with 1 ml of 0.1 M Tris buffer. Subsequently, 2 ml of a DPPH solution (solution obtained by dissolving DPPH at its concentration of 500 μM in ethanol) was added to the solutions and well mixed. The resulting solutions were left at room temperature for 20 minutes in the dark to undergo reaction. The amount of DPPH in each reaction solution (10 μl) was quantified by measurement using HPLC Analysis System 2 described below under HPLC Condition 3. In a method of evaluating radical-scavenging activity, the amount of DPPH remaining in the sample (glycoside and aglycon)-free test section (control) was regarded in advance as 100%. Additionally, the amount of DPPH remaining in the reaction solution supplemented with each sample was measured and indicated by percentage (%) with respect to the amount of DPPH in the control section. Because the radical-scavenging activity of the section supplemented with eriodictyol and vitamin C was almost 100%, the test was conducted again with the amount of the sample reduced to half. Namely, eriodictyol and vitamin C were dissolved at each concentration of 500 ppm in a solvent to produce an aqueous solution whose 50 μl aliquot was then supplemented with 1 ml of 0.1 M Tris buffer. The radical-scavenging activity of the resulting solution was measured as described above. The obtained numeric value was doubled to thereby correct the data. The result is shown in Table 1. <HPLC Analysis System 2> Pump: Shimadzu LC-10AD, System Controller: Shimadzu SCL-10A, Autoinjector: Shimadzu SIL-10A, Detector: Shimadzu SPD-10A (UV spectrophotometric detector), Column Oven: Shimadzu CTO-10A <HPLC Condition 3> Column: TSK-GEL octyl-80Ts (4.6 i.d.×150 mm), Eluent: methanol/water=30/70 (v/v), Flow Rate: 1 ml/min, Detection Wavelength: 517 nm

[3] = Inhibitory effects on generation of peroxide lipid, methyl linoleate as substrate; details: 100 μl of 500 ppm solution, 89 mg methyl linoleate, 40° C. 18 hours in the dark
Description: Each sample shown in Table 1 described above was examined for inhibitory effects on the generation of peroxide lipid, with methyl linoleate as a substrate. Namely, 100 μl of each aqueous solution used in the paragraph (Measurement of radical-scavenging activity) and 89 mg (100 μl) of methyl linoleate were added to a small test tube of 14 mm in inner diameter and well mixed. At the same time, 100 μl of only the solvent for the aqueous solution was added instead of the aqueous solution to prepare a control. The solvents in these mixture solutions were completely removed in a vacuum desiccator using a vacuum pump. The resulting solutions were left in the dark at 40° C. for 18 hours. Next, 5 ml of 0.08% BHT (2,6-di-t-butyl-4-methylphenol)/hexane solution was added thereto. The amount of peroxide generated from methyl linoleate was measured using HPLC Analysis System 2 shown below under HPLC Condition 4. In a method of measuring and evaluating antioxidative activity, the total of HPLC peak area of peroxide lipids (13-hydroperoxide and 9-hydroperoxide) generated from methyl linoleate in the control test section was determined first. This determined value was regarded as 100%. The total HPLC peak area of the peroxide lipids in the test section supplemented with each sample was determined. This determined value was indicated by percentage (%) with respect to the total of HPLC peak area of the control to thereby determine a rate of inhibition against the oxidation of methyl linoleate.
Pump: Shimadzu LC-10AD, System Controller: Shimadzu SCL-10A, Autoinjector: Shimadzu SIL-10A, Detector: Shimadzu SPD-10A (UV spectrophotometric detector), Column Oven: Shimadzu CTO-10A
Column: Develosil ST 60-5 (4.6 i.d.×250 mm), Eluent: n-hexane/1,4-dioxane/isopropylalcohol=98/1/1 (v/v/v), Flow Rate: 1 ml/min, Detection Wavelength: 235 nm

[4] = Measurement of rate of elimination of active oxygen (xanthine oxidase / xanthine / nitro blue tetrazolium); details: as printed for α-tocopherol in the active oxygen test
Description: Xanthine oxidase (0.5 ml (5.6 units)) was mixed with 0.3 ml of 1 mM xanthine (manufactured by Wako Pure Chemical Industries), 0.3 ml of 0.25 mM nitro blue tetrazolium (manufactured by Wako Pure Chemical Industries), and 2.3 ml of 0.05 M sodium carbonate buffer (pH 10.2). The xanthine oxidase used was a reagent (manufactured by Wako Pure Chemical Industries) diluted at 100 fold with 0.05 M sodium carbonate buffer. This mixture was supplemented with 0.1 ml (concentration: 1000 ppm) of the lemon glycoside of Comparative Example 1 or the enzyme-treated aglycon of Test Example 1 and incubated. Because blue formazan was produced with a lapse of incubation time, absorbance at λ=560 nm was measured using a spectrophotometer (HITACHI spectrophotometer U2000) after 3 minutes of incubation. A test section without addition of the sample (glycoside and aglycon) was used as control. As a blank test, a sodium carbonate buffer was added instead of the xanthine oxidase to perform the same procedures. A value obtained by subtracting the absorbance of the blank test from the absorbance of the solution supplemented with each sample was divided by the absorbance of the control to thereby determine a rate of elimination of active oxygen (%).

SMILES: C[C@@H]1O[C@@H](OC[C@H]2O[C@@H](Oc3cc(O)c4c(c3)O[C@H](c3ccc(O)c(O)c3)CC4=O)[C@H](O)[C@@H](O)[C@@H]2O)[C@H](O)[C@H](O)[C@H]1O [Eriocitrin, eriocitrin]
rate of oxidation of the liposome membrane [1]: 9.52%
DPPH radical-scavenging activity [2]: 28.64%
Rate of inhibition against oxidation of methyl linoleate [3]: 8.00%

SMILES: O=C1C[C@@H](c2ccc(O)c(O)c2)Oc2cc(O)cc(O)c21 [Eriodictyol, eriodictyol]
rate of oxidation of the liposome membrane [1]: 6.80%
DPPH radical-scavenging activity [2]: 75.70%
Rate of inhibition against oxidation of methyl linoleate [3]: 20.99%

SMILES: C[C@@H]1O[C@@H](O[C@H]2[C@H](Oc3cc(O)c4c(c3)O[C@H](c3ccc(O)c(O)c3)CC4=O)O[C@H](CO)[C@@H](O)[C@@H]2O)[C@H](O)[C@H](O)[C@H]1O [Neoeriocitrin, neoeriocitrin]
DPPH radical-scavenging activity [2]: 30.70%
Rate of inhibition against oxidation of methyl linoleate [3]: 9.24%

SMILES: O=C1O[C@H]([C@@H](O)CO)C(O)=C1O [Vitamin C, ascorbic acid]
DPPH radical-scavenging activity [2]: 14.00%
Rate of inhibition against oxidation of methyl linoleate [3]: 8.32%

rate of oxidation [4]: 238.2%
SMILES: Cc1c(C)c2c(c(C)c1O)CC[C@@](C)(CCC[C@H](C)CCC[C@H](C)CCCC(C)C)O2 [α-tocopherol]
rate of oxidation of the liposome membrane [1]: 76.87%
DPPH radical-scavenging activity [2]: 44.82%
Rate of inhibition against oxidation of methyl linoleate [3]: 16.97%
